Assay results reported in US8318781B2, “G-protein-conjugated receptor agonist” (Japan Science and Technology Agency, priority 2007, dated 2012).
Entries after “also recorded” stand apart in the source; their conditions may differ.

Tests used:
Type in all cases: cell-based
[1] = biological target: T1, human GPR120 (hGPR120) (Homo sapiens, UniProt Q5NUL3); assay: ERK assay, screening for GPR120 ligands in cell line TXGPR120; details: TXGPR120 cells; for ERK/GPR120 10 μM: ligand 10 μM; for ERK/GPR120 10 μM / ERK/GPR120 100 μM: class relative to LA; for ERK/GPR120 100 μM: ligand 100 μM;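 as to ERK/GPR120 10 μM: signals normalized between DMSO and PMA controls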
T1 construct: expressed in transfected cells; doxycycline-inducible expression vector
T1 sequence (Q5NUL3 1-361): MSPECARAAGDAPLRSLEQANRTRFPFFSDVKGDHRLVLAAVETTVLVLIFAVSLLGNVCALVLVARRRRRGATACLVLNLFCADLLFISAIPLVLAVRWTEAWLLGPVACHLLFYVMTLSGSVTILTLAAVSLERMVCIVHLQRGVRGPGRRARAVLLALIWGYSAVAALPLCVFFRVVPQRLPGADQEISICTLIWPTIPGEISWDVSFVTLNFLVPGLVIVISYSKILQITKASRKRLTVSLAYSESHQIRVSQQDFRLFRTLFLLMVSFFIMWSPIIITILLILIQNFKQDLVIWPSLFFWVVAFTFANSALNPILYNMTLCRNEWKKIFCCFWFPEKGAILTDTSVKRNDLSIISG
Description: (§1) This Test 1 was carried out by using the following materials and methods.
(§2) (1) In this test, the cell lines TXGPR40 and TXGPR120 were plated in 35-mm dishes in 5×10^5 cells/per dish.
(§3) Each ligand was dissolved in DMSO, diluted tenfold with the medium to make the total amount of 100 μl. DMSO was used as the negative control, and PMA (phorbol-12-myristate-13-acetate) was used as the positive control.
(§4) (3) The medium was removed from the dish of the cell to reduce the total amount of liquid to 0.9 ml.
(§5) (4) The ligand solution was added dropwise to the cell solution, and dispersed by gently shaking the dish, and allowed to react at room temperature.
(§6) (5) After 5 minutes of reaction, the medium was discarded, and the remaining medium on the dish was removed on ice using an aspirator.
(§7) (6) 150 μl of Lysis buffer (50 mM HEPES (pH 7.0), 150 mM NaCl, 10% glycerol, 1% NonidetP-40, 2 mM MgCl2, 1 mM EDTA, 100 mM NaF, 10 mM sodium phosphate, 1 mM Na3VO4, 20 mM β-glycerophosphate, and Proteinase inhibitor) were added, then the cells were collected using a cell scraper.
(§8) (1) The crude enzyme solution mixed with SDS Sample Buffer was subjected to ultrasonication with a sonifier, then incubated at 90° C. for five minutes.
(§9) (2) The mixture was vortexed and centrifuged at 15,000 rpm for five minutes at 4° C.
(§10) (3) The supernatant of the centrifuged sample was applied to two 7.5% acrylamide gel slabs placed in an electrophoresis tank filled with 1×SDS-PAGE Running Buffer (25 mM Tris, 0.2 M Glycin, and 1% SDS). Electrophoresis was carried out under a constant current of 40 mA for about 80 to 90 minutes.
(§11) (1) A PVDF membrane cut in the same size as the gel slab was immersed in methanol for about 15 seconds and then shaken in Transfer Buffer C solution (25 mM Tris, 0.02% SDS, 2% methanol and 40 mM 6-aminohexanoic acid) at room temperature to swell for 15 minutes. Filter paper for blotting was cut into a 10-cm square.
(§12) (2) On the blotting apparatus were placed sequentially two pieces of filter paper immersed in A solution (0.3 M Tris, 0.02% SDS and 2% methanol), two pieces of filter paper immersed in B solution (25 mM Tris, 0.02% SDS and 2% methanol), and the membrane thereon. The gel slab after electrophoresis, and finally two pieces of filter paper immersed in C solution was placed thereon, and the apparatus was closed.
(§13) (3) The protein was transferred to the membrane at 15 V for 30 minutes.
(§14) (1) The following procedure was all carried out at room temperature. After the protein transfer, the membrane was placed into a vial containing 1×TTBS (0.2 M Tris, 1.5 M NaCl, 0.2% Tween 20) and washed for 15 minutes.
(§15) (2) TTBS was discarded, and about 10 ml of Block Ace was added and blocked on a shaker for one hour.
(§16) (1) The primary antibodies (p44/42 MAP Kinase Antibody and Phospho-p44/42 MAP Kinase Antibody) were each diluted 1000-fold with TTBS.
(§17) (2) After blocking, the Block Ace solution was removed, the solution of the primary antibody was added and allowed to react on the shaker for two hours.
(§18) (1) The secondary antibody (Anti-rabbit Ig, Horseradish Peroxidase linked F(ab′)2 fragments) was diluted 5000-fold with TTBS.
(§19) (2) The primary antibody solution was removed and the membrane was washed three times on the shaker in TTBS for five to ten minutes each.
(§20) (3) TTBS was removed and the solution of secondary antibody was added and left for 1 hour on the shaker.
(§21) (1) 2 ml each of Detection Reagent 1 and Detection Reagent 2 from ECL kit were mixed together on ice.
(§22) (2) The solution of secondary antibody was removed from the membrane reacted with the secondary antibody and then washed three times on the shaker in TTBS for five minutes each.
(§23) (3) The liquid was thoroughly removed from the membrane, which was then placed in a plastic bag, and 2 ml of the Detection Reagent mixture was added per each membrane.
(§24) (4) The membrane was kept in contact with a film in the cassette for one to five minutes, and the film was developed using an automatic developing machine.

[2] = biological target: T1, human GPR120 (hGPR120); assay: Determination of intracellular Ca2+ concentration (FLIPR), cell line TXGPR120; details: for agonistic activity for hGPR120 (in words): cells in which GPR120 has been transgenically expressed; for [Ca^2+]/GPR120 10 μM (ratio vs. LA): relative fluorescence intensity vs LA at 10 μM, TXGPR120 cells
Description: (§25) (1) In this test, The cell lines TXGPR40, TXGPR120 and GPR120/Flp-in were plated onto a collagen-coated black 96-well plate in 2×10^5 cells/well. The 96-well plates containing the cells were centrifuged and treated with Doxycycline (final concentration 10 μg/mL), incubated in a CO2 incubator for 21 hours, then used for assay.
(§26) (2) The ligand used in this test includes NCP04, NCP14, NCG20, NCG21, NCG22, NCG23, NCP02, NCP03, NCP05, NCP06, NCG14, NCG17, NCG19, NCG28, NCG29, NCG30, NCG31, NCG34, NCG35, NCG37, NCG38, NCG44, NCG45, NCG46, and NCG54. Each ligand was dissolved in DMSO and adjusted to the concentration of 10 mM, then diluted with Hanks' Balanced Salt Solution (pH 7.4) containing 20 mM HEPES (referred to as FLIPR buffer hereinafter) to the final concentration of 1 to 100 μM. 1% DMSO was used as the negative control, and LA was used as the positive control.
(§27) The ligands and controls were placed in different 96-well plates from the plates for the cells.
(§28) (3) The 96-well plate containing the cells was removed from the CO2 incubator. A fluorescent dye prepared in a twofold higher concentration (Ca Assay Kit Component A diluted with FLIPR Buffer) was added in 50 μL/well, then allowed to stand in the dark at room temperature for one hour.
(§29) (4) After one hour, the 96-well plate containing the cells and the 96-well plate in which ligands and controls were prepared were set on FLIPR (Fluorometric Imaging Plate Reader) for determination.
(§30) (5) Fluorometry using FLIPR was carried out at a laser output of 1.0 W for five minutes. […] after the start of the determination, the ligand (25 μL) was added dropwise to the cell plate at a rate of 50 μL/sec. The intensity of fluorescence was automatically digitized by the application program installed in the FLIPR from the image taken by the CCD camera (with exposure time of 0.40 sec). The interval of data sampling was one second for the initial one minute after the start of operation, and six seconds for the subsequent four minutes.
(§31) (6) The maximum fluorescence intensity was obtained from the data showing the change in the fluorescence intensity over time observed in each well. The maximum fluorescence intensity was plotted against ligand concentration, and pEC50 was calculated. The ratio of the fluorescence intensity for each ligand to LA at 10 μM was calculated as the relative intensity of each ligand.

[3] = biological target: T2, human GPR40 (hGPR40) (Homo sapiens, UniProt O14842); assay: Determination of intracellular Ca2+ concentration (FLIPR), cell line TXGPR40; details: for EC50 / [Ca^2+]/GPR40 10 μM (ratio vs. LA): TXGPR40 cells; for EC50: maximum fluorescence intensity vs ligand concentration, read-out: [Ca^2+]/GPR40 pEC50 (converted); for agonistic activity for GPR40 (in words): cells in which GPR40 has been transgenically expressed; for [Ca^2+]/GPR40 10 μM (ratio vs. LA): relative fluorescence intensity vs LA at 10 μM
T2 construct: expressed in transfected cells; doxycycline-inducible expression vector
T2 sequence (O14842 whole entry): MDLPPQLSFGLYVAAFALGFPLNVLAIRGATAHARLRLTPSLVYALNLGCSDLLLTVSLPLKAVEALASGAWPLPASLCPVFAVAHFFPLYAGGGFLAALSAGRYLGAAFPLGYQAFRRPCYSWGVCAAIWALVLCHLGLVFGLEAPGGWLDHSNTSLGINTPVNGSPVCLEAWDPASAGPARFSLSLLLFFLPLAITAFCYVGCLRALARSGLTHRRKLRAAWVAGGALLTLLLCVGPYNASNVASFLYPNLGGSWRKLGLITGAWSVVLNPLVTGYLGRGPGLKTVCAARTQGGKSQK
Description: as §25, §26, §27, §28, §29, §30, §31

[4] = biological target: T1, human GPR120 (hGPR120); assay: Determination of intracellular Ca2+ concentration (FLIPR), cell line GPR120/Flp-in; details: GPR120/Flp-in cells; for EC50: maximum fluorescence intensity vs ligand concentration, read-out: [Ca^2+]/GPR120/Flp-In pEC50 (converted); for [Ca^2+]/GPR120/Flp-In 10 μM (ratio vs. LA): relative fluorescence intensity vs LA at 10 μM
Description: as §25, §26, §27, §28, §29, §30, §31

[5] = biological target: T2, human GPR40 (hGPR40); assay: ERK assay, screening for GPR40 ligands in cell line TXGPR40; details: TXGPR40 cells; for ERK/GPR40 10 μM: ligand 10 μM; for ERK/GPR40 10 μM / ERK/GPR40 100 μM: class relative to LA; for ERK/GPR40 100 μM: ligand 100 μM
Description: as §1, §2, §3, §4, §5, §6, §7, §8, §9, §10, §11, §12, §13, §14, §15, §16, §17, §18, §19, §20, §21, §22, §23, §24

SMILES | ERK activation for GPR120 (in words) ([1]; FIGS. 5-8) | ERK/GPR120 10 μM [1] | ERK/GPR120 100 μM [1] | agonistic activity for hGPR120 (in words) [2] | [Ca^2+]/GPR120 10 μM (ratio vs. LA) [2] | EC50 [3] [µM] | agonistic activity for GPR40 (in words) [3] | [Ca^2+]/GPR40 10 μM (ratio vs. LA) [3] | EC50 [4] [µM] | [Ca^2+]/GPR120/Flp-In 10 μM (ratio vs. LA) [4] | ERK activation for GPR40 (in words) ([5]; FIGS. 1-4) | ERK/GPR40 10 μM [5] | ERK/GPR40 100 μM [5]
O=C(O)CCc1ccc(OCCCN(c2ccccc2)c2ccccn2)cc1 [NCG28] | activates ERK | ++ (++ denotes 50 to 100% of LA) | +++ (+++ denotes a higher value than LA) | exhibit a similar effect | 0.02 | 1.12 | showed a specific reactivity | 1.37 | 6.76 | 0.54 | activates ERK at lower concentrations; also recorded: strongly activated ERK | +++ (+++ denotes a higher value than LA) | +++ (+++ denotes a higher value than LA)
CCCCN(CCOc1ccc(CCC(=O)O)cc1)c1ccccn1 [NCP04] |  | + (+ denotes 0 to 100% of LA) | +++ (+++ denotes a higher value than LA) | exhibit a similar effect | 0.00 | 2.57 | showed a specific reactivity | 2.15 | 18.2 | 0.33 |  | +++ (+++ denotes a higher value than LA) | +++ (+++ denotes a higher value than LA)
